The results in this text go back to ChEMBL document CHEMBL1201862, “PubChem BioAssay data set” (2004).

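Cells were grown in 96-well plates and exposed to each compound for 48 hours at five concentrations; endpoints were interpolated linearly between bracketing concentrations, or set to the highest concentration if not reached. GI50: concentration for 50% inhibition of growth.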 The source made the active and inactive calls. Rule as the data show it: active = GI50 up to about 1.1 µM and inactive = higher.

Some test systems named below: ACHN; CCRF-CEM; DLD-1; EKVX; HCT-15; HOP-62; MOLT-4; Malme-3M; NCI-H522; SK-MEL-5; SN12C; SNB-19; SR; SW-620; UACC-62; BT-549; MCF7; MDA-MB-435; PC-3; T47D.
Holding throughout (assay): growth of human tumour cells (NCI), 48 h

`Nc1nc2c(nnn2C2C=C(CO)C(O)C2O)c(=O)[nH]1` (stereo not given): the GI50 in the assay on ACHN is > 100 µM (inactive); with CCRF-CEM it was > 100 µM (inactive); with DLD-1, > 100 µM (inactive); in the assay on EKVX, > 100 µM (inactive); in the assay with HCT-15 it was above 100 µM; in the assay on HOP-62, > 100 µM (inactive). For the same compound, the GI50 is 42.5 µM (inactive) in the assay with MOLT-4; 95.7 µM (inactive) in the assay on Malme-3M; > 100 µM (inactive) in the assay with NCI-H522; > 100 µM (inactive) in the assay with SK-MEL-5; 94.4 µM (inactive) with SN12C; > 100 µM (inactive) in the assay on SNB-19. Besides, the GI50 with SR is > 100 µM (inactive); in the assay with SW-620 it was 66.4 µM (inactive); in the assay on UACC-62, 58.6 µM (inactive).
For `c1ccc(-c2[nH]c(-c3ccccc3)c(-c3cnccn3)c2-c2cnccn2)cc1`, the GI50 with ACHN was > 100 µM (inactive); in the assay on CCRF-CEM it was > 100 µM (inactive); in the assay on DLD-1, > 100 µM (inactive); with EKVX, > 100 µM (inactive); in the assay with HCT-15, above 100 µM; with HOP-62 it was > 100 µM (inactive). Further, the GI50 with MOLT-4, with Malme-3M, with NCI-H522, with SK-MEL-5, in the assay on SN12C and in the assay with SNB-19 was > 100 µM (inactive) in each case. For the same compound, the GI50 in the assay on SR is 82.8 µM (inactive); in the assay with SW-620, > 100 µM (inactive); in the assay with UACC-62, > 100 µM (inactive).
`NNC(=S)N/N=C(\c1nc2ccc(Cl)cc2nc1O)C(O)c1ccc(Cl)cc1Cl` (stereo not given): the GI50 in the assay with ACHN is > 100 µM (inactive); in the assay with CCRF-CEM, > 100 µM (inactive); in the assay on DLD-1, > 100 µM (inactive); with EKVX, > 100 µM (inactive); in the assay on HCT-15, above 100 µM; with HOP-62, > 100 µM (inactive). The GI50 in the assay with MOLT-4, in the assay on Malme-3M, in the assay on NCI-H522, in the assay with SK-MEL-5, with SN12C and in the assay on SNB-19 was > 100 µM (inactive) in each case. Moreover, the GI50 in the assay with SR, with SW-620 and in the assay with UACC-62 was > 100 µM (inactive) in each case.
As for `O=C1CCC(C(=O)O)C2=C1CCCC2` (stereo not given), the GI50 in the assay on ACHN is > 100 µM (inactive); in the assay with BT-549 it was > 100 µM (inactive); in the assay on CCRF-CEM, > 100 µM (inactive); in the assay on DLD-1, > 100 µM (inactive); in the assay on EKVX, > 100 µM (inactive); in the assay on HCT-15 it was above 100 µM. Further, the GI50 was > 16.4 µM (inactive) with HOP-62; 51.6 µM (inactive) in the assay on MCF7; > 100 µM (inactive) in the assay with MDA-MB-435; > 100 µM (inactive) in the assay with MOLT-4; > 100 µM (inactive) in the assay with Malme-3M; > 100 µM (inactive) in the assay with NCI-H522. Moreover, the GI50 in the assay on PC-3 was > 100 µM (inactive); in the assay on SK-MEL-5 it was > 56.1 µM (inactive); with SN12C, > 100 µM (inactive); in the assay on SNB-19 it was > 36.2 µM (inactive); in the assay with SR it was > 100 µM (inactive); in the assay with SW-620, > 100 µM (inactive). The GI50 in the assay with T47D and in the assay on UACC-62 was > 100 µM (inactive) in each case.
Regarding `Oc1ncnc2c1CCCN2`, the GI50 is > 100 µM (inactive) in the assay with ACHN; > 100 µM (inactive) in the assay on CCRF-CEM; > 100 µM (inactive) in the assay on DLD-1; > 100 µM (inactive) with EKVX; above 100 µM in the assay on HCT-15; > 100 µM (inactive) with HOP-62. Besides, the GI50 with MOLT-4, in the assay on Malme-3M, in the assay on NCI-H522, with SK-MEL-5, in the assay with SN12C and with SNB-19 was > 100 µM (inactive) each time. The GI50 in the assay on SR, with SW-620 and in the assay on UACC-62 was > 100 µM (inactive) each time.
